According to ChEMBL document CHEMBL1133765, “QSAR model for drug human oral bioavailability” (J Med Chem, 2000):

Experiments:
[1] = octanol/water
[2] = clinical; conditions: human, in vivo, po
[3] = physchem; conditions: octanol/water
[4] = octanol/water; remark: listed apart in the source
[5] = physchem
[6] = physchem; conditions: octanol/water, pH 6.5

Compound | delta logD [1] | bioavailability ([2]; F) | logD ([3]; pH 6.5, logD) | delta logD [4] | pKa [5] | logD [6] | bioavailability [2] | logD ([3]; pH 6.5)
CC(C)(C)NC(=O)C1CC[C@H]2[C@]3(C)CC[C@H]4NC(=O)C=C[C@]4(C)[C@H]3CC[C@]12C (stereo partly drawn) | 0 | 79% | 3.03 | – | – | – | – | –
CO/C(O)=C1\C(C)=NC(C)=C(C(=O)OCC(C)C)C1c1ccccc1[N+](=O)[O-] (stereo not drawn) | 0 | < 20% | 1.58 | – | – | – | – | –
CCCNC1CCc2nc(N)sc2C1 (stereo not drawn) | – | ≥ 80% | – | -0.9 | 11 | -2.9 | – | –
CN(C)CCC=C1c2ccccc2CCc2ccccc21 [AMITRIPTYLINE] | -0.9 | – | – | – | – | – | 49% | 2.14
CC(=O)Oc1ccccc1C(=O)O [ASPIRIN] | 0.9 | 79% | -1.81 | – | – | – | – | –
C[C@H]1C[C@H]2[C@@H]3CCC4=CC(=O)C=C[C@]4(C)[C@@]3(F)[C@@H](O)C[C@]2(C)[C@@]1(O)C(=O)CO [BETAMETHASONE] | 0 | – | 1.94 | – | – | – | – | –
CC(C)NCC(O)COc1ccc(COCCOC(C)C)cc1 (stereo not drawn) [BISOPROLOL] | – | – | – | -0.89 | 9.2 | -0.83 | – | –
CC(C)(C)NCC(O)COc1cccc2c1CCC(=O)N2 (stereo not drawn) [CARTEOLOL] | – | ≥ 80% | – | -0.89 | 9.2 | -1.35 | – | –
CCCNC(=O)NS(=O)(=O)c1ccc(Cl)cc1 [CHLORPROPAMIDE] | – | ≥ 80% | – | 0.89 | 5 | 0.76 | – | –
Cc1ncsc1CCCl [CLOMETHIAZOLE] | 0 | – | – | – | – | – | < 20% | 2.12
C[C@@H]1C[C@H]2[C@@H]3CCC4=CC(=O)C=C[C@]4(C)[C@@]3(F)[C@@H](O)C[C@]2(C)[C@@]1(O)C(=O)CO [DEXAMETHASONE] | 0 | – | 1.83 | – | – | – | – | –
CC1=NS(=O)(=O)c2cc(Cl)ccc2N1 [DIAZOXIDE] | – | ≥ 80% | – | 0.03 | 8.5 | 1.2 | – | –
CC(C)N(CCC(C(N)=O)(c1ccccc1)c1ccccn1)C(C)C (stereo not drawn) [DISOPYRAMIDE] | – | – | – | -0.9 | 10.4 | -1.08 | ≥ 80% | –
O=c1[nH]c2ccccc2n1CCCN1CCC(n2c(=O)[nH]c3cc(Cl)ccc32)CC1 [DOMPERIDONE] | – | – | – | – | – | – | – | 2.83
N#Cc1ccccc1OCC(O)CNCCNC(=O)Cc1ccc(O)cc1 (stereo not drawn) [EPANOLOL] | – | ≤ 20% | – | -0.77 | 7.8 | -0.4 | – | –
CC(C(=O)O)c1ccc(-c2ccccc2)c(F)c1 (stereo not drawn) [FLURBIPROFEN] | – | – | – | 0.9 | 4.2 | 1.81 | ≥ 80% | –
Cc1ccc(C)c(OCCCC(C)(C)C(=O)O)c1 [GEMFIBROZIL] | – | ≥ 80% | – | 0.89 | 4.8 | 1.47 | – | –
COc1ccc(Cl)cc1C(=O)NCCc1ccc(S(=O)(=O)NC(=O)NC2CCCCC2)cc1 [GLYBURIDE] | – | ≥ 80% | – | 0.87 | 5.3 | 1.85 | – | –
CN1C(=O)NC(=O)C(C)(C2=CCCCC2)C1=O (stereo not drawn) [HEXOBARBITAL] | – | – | – | 0.04 | 8.3 | 1.48 | ≥ 80% | –
NNc1nncc2ccccc12 [HYDRALAZINE] | – | ≤ 20% | – | -0.61 | – | 0.14 | – | –
Nc1cc(-c2ccncc2)c[nH]c1=O [INAMRINONE] | – | ≥ 80% | – | -0.02 | 5.2 | -0.72 | – | –
O=C(c1ccccc1)c1ccc2n1CCC2C(=O)O (stereo not drawn) [KETOROLAC] | – | ≥ 80% | – | 0.9 | – | -1.34 | – | –
CN(CCCN1c2ccccc2CCc2ccccc21)CC(=O)c1ccc(Cl)cc1 [LOFEPRAMINE] | – | ≤ 20% | – | -0.32 | 6.7 | 4.58 | – | –
CC(C)(C)NCC(O)c1cc(Cl)c(N)c(C(F)(F)F)c1 (stereo not drawn) [MABUTEROL] | – | – | – | -0.9 | 9.7 | -0.03 | ≥ 80% | –

Compound | delta logD [1] | bioavailability ([2]; F) | logD ([3]; pH 6.5, logD) | delta logD [4] | pKa [5] | logD [6] | bioavailability [2] | logD ([3]; pH 6.5)
COC(=O)Nc1nc2ccc(C(=O)c3ccccc3)cc2[nH]1 [MEBENDAZOLE] | – | ≤ 20% | – | 0 | – | 2.83 | – | –
CCC1(c2cccc(O)c2)CCCCN(C)C1 (stereo not drawn) [MEPTAZINOL] | – | – | – | -0.88 | 8.7 | 0.71 | ≤ 20% | –
Sc1ncnc2nc[nH]c12 [MERCAPTOPURINE ANHYDROUS] | – | ≤ 20% | – | -0.72 | 7.6 | -1.12 | – | –
COCCc1ccc(OCC(O)CNC(C)C)cc1 (stereo not drawn) [METOPROLOL] | – | 49% | -1.32 | – | – | – | – | –
Cc1[nH]c(=O)c(C#N)cc1-c1ccncc1 [MILRINONE] | – | ≥ 80% | – | -0.02 | 5.2 | 0.68 | – | –
COc1ccc2cc(CCC(C)=O)ccc2c1 [NABUMETONE] | – | ≤ 20% | – | 0 | – | 2.83 | – | –
O=C(O)CCc1nc(-c2ccccc2)c(-c2ccccc2)o1 [OXAPROZIN] | – | ≥ 80% | – | 0.84 | 5.8 | 3.41 | – | –
O=C1OC(c2ccc(O)cc2)(c2ccc(O)cc2)c2ccccc21 [PHENOLPHTHALEIN] | – | ≤ 20% | – | 0 | – | 2.41 | – | –
O=c1[nH]c2ccccc2n1C1CCN(CCCC(c2ccc(F)cc2)c2ccc(F)cc2)CC1 [PIMOZIDE] | – | – | – | – | 7.3 | – | – | 5.42
CC1CCCC(C)N1CCCC(O)(c1ccccc1)c1ccccn1 (stereo not drawn) [PIRMENOL] | – | ≥ 80% | – | -0.9 | 10.2 | -0.53 | – | –
C[C@]12C=CC(=O)C=C1CC[C@@H]1[C@@H]2[C@@H](O)C[C@@]2(C)[C@H]1CC[C@]2(O)C(=O)CO [PREDNISOLONE] | 0 | – | – | – | – | – | – | –
C[C@]12C=CC(=O)C=C1CC[C@@H]1[C@@H]2C(=O)C[C@@]2(C)[C@H]1CC[C@]2(O)C(=O)CO [PREDNISONE] | 0 | > 80% | – | – | – | – | – | –
CCCN(CCC)S(=O)(=O)c1ccc(C(=O)O)cc1 [PROBENECID] | – | ≥ 80% | – | 0.9 | 3.4 | 0.11 | – | –
CC(=O)[C@H]1CC[C@H]2[C@@H]3CCC4=CC(=O)CC[C@]4(C)[C@H]3CC[C@]12C [PROGESTERONE] | 0 | – | – | – | – | – | < 20% | –
C1COC(NC(C2CC2)C2CC2)=N1 [RILMENIDINE] | – | ≥ 80% | – | -0.9 | 9.3 | -0.94 | – | –
Nc1ccc(S(=O)(=O)Nc2ncccn2)cc1 [SULFADIAZINE] | – | ≥ 80% | – | 0.65 | – | -0.39 | – | –
CN1C(C(=O)Nc2ccccn2)=C(O)c2sccc2S1(=O)=O [TENOXICAM] | – | ≥ 80% | – | 0.88 | 5.1 | 0.56 | – | –
CCN(CC)C(=O)N[C@H]1C[C@@H]2c3cccc4[nH]cc(c34)C[C@H]2N(C)C1 [TERGURIDE] | – | – | – | -0.32 | 6.8 | 2.05 | ≤ 20% | –
C[C@]12CC[C@H]3[C@@H](CCC4=CC(=O)CC[C@@]43C)[C@@H]1CC[C@@H]2O [TESTOSTERONE] | 0 | – | – | – | – | – | < 20% | –
Cc1cccc(C)c1NC(=O)C(C)N (stereo not drawn) [TOCAINIDE] | – | ≥ 80% | – | -0.78 | – | -0.56 | – | –
Cc1ccc(C(=O)c2ccc(CC(=O)O)n2C)cc1 [TOLMETIN] | – | ≥ 80% | – | 0.9 | – | -0.21 | – | –
CCCC(CCC)C(=O)O [VALPROIC ACID] | – | ≥ 80% | – | 0.89 | – | 1.04 | – | –
O=C(NCCNCC(O)COc1ccc(O)cc1)N1CCOCC1 (stereo not drawn) [XAMOTEROL] | – | ≤ 20% | – | -0.78 | 7.8 | -0.8 | – | –
